# Results published in patent publication US9724338B2, “Methods of using (+)-1,4-dihydro-7-[(3S,4S)-3-methoxy-4-(methylamino)-1-pyrrolidinyl]-4-OXO-1-(2-thiazolyl)-1,8-naphthyridine-3-carboxylic acid for treatment of antecedent hematologic disorders” (SUNESIS PHARMACEUTICALS, INC., priority 2007, dated 2017).
# Legend:
# [1] = tested on: relapsed CMML (transformed to AML); assay: Clinical study: treatment with SNS-595 of a patient with relapsed CMML (Example 3); format: in vivo, human; conditions: 50 mg/m^2 twice a week; for Marrow blasts: slow IV push
# Description: A patient with relapsed CMML (transformed to AML) was enrolled. The patient was diagnosed about 17 months prior to the study, was treated with 1 cycle of a Southwest Oncology Group (SWOG) regimen after diagnosis. They were given 4 cycles of azacitidine (Vidaza®) about 14 months prior to the study and 1 cycle of decitabine, about 6 months before the study.
# [2] = tested on: advanced or refractory acute leukemias; assay: Clinical study: dose-escalating treatment of acute leukemia with SNS-595 (Example 4); format: in vivo, human
# Excerpt: Minimum cycle length was 42 days for Arm A and 39 days for Arm B, respectively. Additional cycles were permitted if patients achieved stable disease or better. […] Pre- and post-dose bone marrow aspirates were obtained from a subset of patients to assess biomarkers.
# [3] = tested on: MDS that had transformed to refractory CMML (progressed to AML); assay: Clinical study: treatment with SNS-595 of a patient with MDS transformed to refractory CMML (Example 2); format: in vivo, human; conditions: 72 mg/m^2 once per week for three weeks; for Peripheral Blasts: slow IV push
# Description: A patient with MDS that had transformed to refractory CMML was enrolled in this study. The patient was diagnosed about 26 months prior to the study and was given 8 cycles of azacitadine (Vidaza®) about 10 months prior to the study. They were then treated with mitoxantrone+VP16 for 1 cycle, about 4 months prior to the study. […] The patient had initial marrow blast count of 39%. The following observations were noted on days 15 and 35.
# [4] = Solubility of SNS-595 in compositions for injection or intravenous infusion (Example 1); format: physicochemical; conditions: Acidic compositions (<pH 4)
# Excerpt: The resulting composition is also suitable for lyophilization. The lyophilized form is then reconstituted with sterile water to the appropriate concentration prior to use.
# [5] = Arm A, weekly x3, dose escalation to 90 mg/m^2
smiles,measurement,setting,value
"CN[C@H]1CN(c2ccc3c(=O)c(C(=O)O)cn(-c4nccs4)c3n2)C[C@@H]1OC [SNS-595, (+)-1,4-dihydro-7-[(3S,4S)-3-methoxy-4-(methylamino)-1-pyrrolidinyl]-4-oxo-1-(2-thiazolyl)-1,8-naphthyridine-3-carboxylic acid]",Clinical outcome of treatment,[1]; one patient,clinical benefit (i.e. hematological improvement) with reduction in blast counts
same,Absolute neutrophil count (ANC),[1]; At the time of undergoing treatment with third cycle,1600
same,Marrow blasts,"[1]; Post Cycle 1, baseline 20% blasts",8%
same,Circulating blasts,[1]; Post Cycle 2,4%
same,Marrow blasts,[1]; Post Cycle 2,1%
same,Circulating blasts,[1]; Post Cycle 3,8%
same,Circulating blasts,[1]; Post Cycle 4,12%
same,Dose-limiting toxicity (DLT),"[2]; Arm A, 27 mg/m^2 weekly dose (also had progressive disease)",G4 myelosuppression
same,Complete Responses (CR),"[2]; Arm A, 50 mg/m^2 dose level",1 patient
same,Dose-limiting toxicity (DLT),"[2]; Arm A, 50 mg/m^2 weekly dose",prolonged myelosuppression
same,Response of a patient with AML and splenomegaly,"[2]; Arm A, 72 mg/m^2",clinical benefit with reduction in splenomegaly and blast counts
same,Dose-limiting toxicity (DLT),"[2]; Arm A, 72 mg/m^2 weekly dose",bowel obstruction
same,Clinical activity: reductions in marrow blasts to ≦5%,"[2]; Arm A, doses at or above 50 mg/m^2",5 patients
same,Drug-related G3 & 4 events: diarrhea,"[2]; Arm A, weekly x3",1 patient
same,Drug-related G3 & 4 events: stomatitis,"[2]; Arm A, weekly x3",3 patients
same,Non-dose-limiting toxicities (non-DLTs),[2]; [5],nausea/vomiting and diarrhea
same,Number of dose-limiting toxicities (DLTs) observed,[2]; [5],Three
same,Clinical activity: reductions in marrow blasts to ≦5%,"[2]; Arm B, 40 mg/m^2",1 patient
same,Complete Responses (CR),"[2]; Arm B, 40 mg/m^2 level",1 patient
same,Response of a patient with AML and splenomegaly,"[2]; Arm B, 50 mg/m^2 dose level, patient had G3 mucositis",partial response
same,G3 mucositis,"[2]; Arm B, twice weekly x2, 40 mg/m^2",two patients out of 11
same,Dose-limiting toxicity (DLT) of Grade (G) 3 mucositis,"[2]; Arm B, twice weekly x2, 50 mg/m^2 dose level",3 patients
same,Tolerability in patients with advanced leukemias,[2]; Arms A and B,well-tolerated
same,Clinical outcome of treatment,[3]; one patient,clinical benefit with reduction in splenomegaly and blast counts
same,Ultimate disease status,[3]; one patient,progressive disease
same,"White blood cell (WBC) count, earlier value ('was')","[3]; Around Day 35, before rise with Necrotizing fasciitis (NF) infection",7000
same,Absolute neutrophil count (ANC),[3]; Around Day 35,3139
same,Peripheral Blasts,"[3]; Around Day 35, one patient",33%
same,White blood cell (WBC) count,"[3]; Around Day 35, patient had Necrotizing fasciitis (NF) infection",16000
same,Absolute neutrophil count (ANC),[3]; Day 15,94
same,White blood cell (WBC) count,[3]; Day 15,600
same,Peripheral Blasts,"[3]; Day 15, one patient",No blasts
same,Solubility,[4],increased solubility
